Results from paper PMC6299216, “Gain-of-Function Mutations in the Phospholipid Flippase MprF Confer Specific Daptomycin Resistance” (mBio, 2018).
≈ marks a conversion by molar mass, not a printed value. Ends that are not written are not given here.

Columns and labels:
[1] = tested on: S. aureus ΔmprF mutant with or without functional MprF; assay: MIC, MIC test strips: mprF deletion mutant versus functional MprF; assay type: cell-based, Staphylococcus aureus; details: daptomycin with 50 mg/liter CaCl2, three independent experiments (Fig. 4A)
From the text: (§1) The common laboratory strain, methicillin-susceptible S. aureus SA113 (ATCC 35556) and its mprF knockout derivative SA113ΔmprF have been described recently ([17]). Point mutations in mprF were introduced by site-directed mutagenesis in Escherichia coli using E. coli/S. aureus shuttle vector pRB474 bearing mprF via the use of a QuikChange kit (Stratagene, La Jolla, CA, USA) (see Table S3 in the supplemental material), as described recently ([20]). Mutated derivatives of mprF were cloned in pRB474mprF and transferred into strain SA113ΔmprF. Expression of the pRB474mprF variants was mediated by the use of constitutive Bacillus subtilis promoter vegII. Plasmids were maintained with 10 μg/ml chloramphenicol in all studies, with the exception of the MIC assays.
(§2) The MICs of daptomycin, bacitracin, polymyxin B, vancomycin, and oxacillin were determined with MIC test strips from Liofilchem according to the manufacturer’s advice. The MICs of friulimicin B, nisin, and gallidermin were determined by broth microdilution in Mueller-Hinton broth (MHB) in a 24-well plate under shaking conditions. Friulimicin B and daptomycin MICs were determined in the presence of 50 mg/liter CaCl2. Other MICs were determined in the presence of 50 mg/liter CaCl2 when indicated.

[2] = tested on: S. aureus ΔmprF mutant expressing E206A-T345A MprF (pRB-E206A-T345A); assay: MIC, MIC test strips, flippase-inactivated MprF; assay type: cell-based, Staphylococcus aureus
From the text: as §1, §2

[3] = tested on: S. aureus ΔmprF mutant expressing R112A-T345A MprF (pRB-R112A-T345A); assay: MIC, MIC test strips, flippase-inactivated MprF; assay type: cell-based, Staphylococcus aureus
From the text: as §1, §2

[4] = tested on: S. aureus ΔmprF mutant expressing D71A-T345A MprF (pRB-D71A-T345A); assay: MIC, MIC test strips, flippase-inactivated MprF; assay type: cell-based, Staphylococcus aureus
From the text: as §1, §2

[5] = tested on: S. aureus with chromosomal deletion of MprF; details: cited from earlier work
From the text: Daptomycin is the first approved drug of a new class of calcium-dependent lipopeptide antibiotics, whose entire mode of action is still not fully understood ([6], [8]). It interacts with phosphatidylglycerol (PG) and interferes with bacterial fluid membrane microdomains, which leads to inhibition of cell wall synthesis ([9]). However, it is unclear if its activity requires a specific docking molecule in the membrane ([9], [10]). How point mutations in different S. aureus proteins contribute to or cause DAP-R remains equally elusive ([6]). Several proteins involved in the synthesis, regulation, ...

[6] = tested on: S. aureus 113 (SA113) mprF mutant expressing parental (wild-type) MprF (pRBmprF); assay type: cell-based, Staphylococcus aureus; details: parental MprF sequence on plasmid in SA113 mprF mutant; MIC test strips; 50 mg/liter CaCl2; mean of at least five independent experiments (Fig. 1B)
From the text: as §1, §2

[7] = tested on: S. aureus 113 (SA113) mprF mutant expressing T345A-MprF (pRB-T345A); assay type: cell-based, Staphylococcus aureus; details: T345A mutation in MprF on plasmid in SA113 mprF mutant; MIC test strips; 50 mg/liter CaCl2; mean of at least five independent experiments (Fig. 1B)
From the text: as §1, §2

[8] = tested on: S. aureus 113 (SA113) mprF mutant expressing V351E-MprF (pRB-V351E); assay type: cell-based, Staphylococcus aureus; details: V351E mutation in MprF on plasmid in SA113 mprF mutant; MIC test strips; 50 mg/liter CaCl2; mean of at least five independent experiments (Fig. 1B)
From the text: as §1, §2

[9] = tested on: S. aureus 113 (SA113) mprF mutant expressing MprF with S295L, P314L, S337L, I420N or L826F; assay: MIC, MIC test strips (Liofilchem); assay type: cell-based, Staphylococcus aureus; details: mutations S295L, I420N and L826F, 50 mg/liter CaCl2 (Fig. 1B)
From the text: as §1, §2

[10] = tested on: S. aureus ΔmprF mutant with or without functional MprF; assay: MIC, broth microdilution: mprF deletion mutant versus functional MprF; assay type: cell-based, Staphylococcus aureus; details: broth microdilution in Mueller-Hinton broth, 24-well plate, shaking; friulimicin B with 50 mg/liter CaCl2; three independent experiments (Fig. 4A)
From the text: as §1, §2

[11] = tested on: S. aureus ΔmprF mutant expressing V351E-MprF; assay: MIC, broth microdilution; assay type: cell-based, Staphylococcus aureus; details: V351E mutation; broth microdilution in MHB; 50 mg/liter CaCl2; three independent experiments (Fig. 4A)
From the text: as §1, §2

[12] = tested on: S. aureus ΔmprF mutant expressing T345A-MprF; assay: MIC, broth microdilution; assay type: cell-based, Staphylococcus aureus; details: T345A mutation; broth microdilution in MHB; 50 mg/liter CaCl2; three independent experiments (Fig. 4A)
From the text: as §1, §2

For bacitracin, the “ability to inhibit S. aureus growth (MIC) with functional MprF versus mprF deletion mutant” value [1] was “reduced in the presence of a functional MprF protein”, the “MIC of bacitracin as indicator of flippase activity, compared to strains expressing a functional MprF” value ([2]; T345A with flippase-inactivating mutation E206A, three independent experiments (Fig. 5A)) was “hypersusceptible” and the “MIC of bacitracin as indicator of flippase activity, compared to strains expressing a functional MprF” value ([3]; T345A with flippase-inactivating mutation R112A, three independent experiments (Fig. 5A)) was “hypersusceptible”. For the same molecule, the “MIC of bacitracin as indicator of flippase activity, compared to strains expressing a functional MprF” value ([4]; T345A with flippase-inactivating mutation D71A, three independent experiments (Fig. 5A)) was “hypersusceptible”.

In the case of `Cc1onc(-c2ccccc2)c1C(=O)N[C@@H]1C(=O)N2[C@@H]1SC(C)(C)[C@@H]2C(=O)O` [oxacillin], the “ability to inhibit S. aureus growth (MIC) with functional MprF versus mprF deletion mutant” value [1] is reported as “not affected by MprF”.

In the case of vancomycin, the “ability to inhibit S. aureus growth (MIC) with functional MprF versus mprF deletion mutant” value [1] is reported as “reduced in the presence of a functional MprF protein”.

For `CCCCCCCCCC(=O)N[C@@H](Cc1c[nH]c2ccccc12)C(=O)N[C@H](CC(N)=O)C(=O)N[C@@H](CC(=O)O)C(=O)N[C@@H]1C(=O)NCC(=O)N[C@@H](CCCN)C(=O)N[C@@H](CC(=O)O)C(=O)N[C@H](C)C(=O)N[C@@H](CC(=O)O)C(=O)NCC(=O)N[C@H](CO)C(=O)N[C@@H]([C@H](C)CC(=O)O)C(=O)N[C@@H](CC(=O)c2ccccc2N)C(=O)O[C@@H]1C` [daptomycin], the “susceptibility after chromosomal deletion of MprF” value [5] is listed as “hypersusceptibility”, the MIC [6] is listed as 1 µg/mL (≈ 0.617 µM) and the MIC [7] is listed as 3 µg/mL (≈ 1.85 µM). The MIC [8] was 3 µg/mL (≈ 1.85 µM), the “ability to inhibit S. aureus growth (MIC) with functional MprF versus mprF deletion mutant” value [1] was “reduced in the presence of a functional MprF protein” and the “daptomycin susceptibility compared to the parental MprF sequence” value [9] was “did not alter daptomycin susceptibility”. The “ability of T345A to increase the MIC of daptomycin” value ([2]; T345A in combination with R206A (so in the source), 50 mg/liter CaCl2, three independent experiments (Fig. 5B)) was “not able to increase the daptomycin MIC”, the “ability of T345A to increase the MIC of daptomycin” value ([3]; T345A in combination with R112A, 50 mg/liter CaCl2, three independent experiments (Fig. 5B)) was “only slightly increased MIC” and the “ability of T345A to increase the MIC of daptomycin” value ([4]; T345A in combination with D71A, 50 mg/liter CaCl2, three independent experiments (Fig. 5B)) was “not able to increase the daptomycin MIC”.

For “nisin (ITSISLCTPGCKTGALMGCNMKTATCHCSIHVSK; also: lantibiotic: thioether rings and dehydro residues, places not given here; UniProt P13068 24-57, looked up)”, the “ability to inhibit S. aureus growth (MIC) with functional MprF versus mprF deletion mutant” value [10] was “reduced in the presence of a functional MprF protein”.

In the case of polymyxin B, the “ability to inhibit S. aureus growth (MIC) with functional MprF versus mprF deletion mutant” value [1] is reported as “reduced in the presence of a functional MprF protein”.

For “gallidermin (IASKFLCTPGCAKTGSFNSYCC; also: lantibiotic: thioether rings and dehydro residues, places not given here; UniProt P21838 31-52, looked up)”, the “ability to inhibit S. aureus growth (MIC) with functional MprF versus mprF deletion mutant” value [10] was “reduced in the presence of a functional MprF protein”.

In the case of friulimicin B, the “ability to inhibit S. aureus growth (MIC) with functional MprF versus mprF deletion mutant” value [10] is reported as “reduced in the presence of a functional MprF protein”, the “cross-resistance (MIC versus wild-type MprF)” value [11] is reported as “cross-resistance” and the “cross-resistance (MIC versus wild-type MprF)” value [12] is reported as “cross-resistance”.
